The values below come from ChEMBL document CHEMBL1129308, “Design and synthesis of 2-naphthoate esters as selective dopamine D4 antagonists” (J Med Chem, 1996).

One assay has as its target T1, D(4) dopamine receptor (Homo sapiens, UniProt P21917).
T1 sequence (P21917 whole entry): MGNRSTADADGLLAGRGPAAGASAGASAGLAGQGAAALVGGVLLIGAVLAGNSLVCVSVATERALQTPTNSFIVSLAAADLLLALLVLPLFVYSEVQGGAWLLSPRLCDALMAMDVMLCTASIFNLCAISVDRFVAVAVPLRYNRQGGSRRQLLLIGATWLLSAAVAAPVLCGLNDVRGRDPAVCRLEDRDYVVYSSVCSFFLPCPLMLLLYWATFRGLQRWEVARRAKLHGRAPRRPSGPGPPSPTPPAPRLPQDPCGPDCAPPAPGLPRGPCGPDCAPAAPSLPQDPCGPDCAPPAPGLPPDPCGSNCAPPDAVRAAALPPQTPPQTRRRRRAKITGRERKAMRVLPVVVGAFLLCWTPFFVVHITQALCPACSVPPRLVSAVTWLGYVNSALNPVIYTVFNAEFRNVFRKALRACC
In words: Binding affinity against cloned human Dopamine receptor D4 using [3H]nemonapride as radioligand.
Turning to `COc1cc2ccccc2cc1C(=O)OCC1CCN(Cc2ccccc2)C1` (stereo not given), the affinity corresponds to a Ki of 20 nM.

For `COc1cc2ccccc2cc1C(=O)NCC1CCN(Cc2ccccc2)CC1`, the affinity corresponds to a Ki of 20 nM.

`COc1cc2ccccc2cc1OC(=O)CC1CCN(Cc2ccccc2)CC1`: affinity was put at a Ki of 6.31 nM.

Turning to `COc1cc2ccccc2cc1COCC1CCN(Cc2ccccc2)CC1`, affinity was put at a Ki of 31.6 nM.

With `COc1cc2ccccc2cc1C(=O)CCC1CCN(Cc2ccccc2)CC1`, the Ki (usually the dissociation constant of the complex between target and ligand, obtained from inhibition or displacement) was 31.6 nM.

The compound `O=C(OCC1CCN(Cc2ccccc2)CC1)c1ccc(Cl)cc1` had a Ki of 25.1 nM.

For the compound `COc1cc2ccccc2cc1OCCC1CCN(Cc2ccccc2)CC1`, the Ki was 25.1 nM.

Take `COc1cc2ccccc2cc1C(=O)OCC1CCN(Cc2ccccc2)CC1`: the Ki was 5.01 nM.

`COc1cc2ccccc2cc1CC(=O)CC1CCN(Cc2ccccc2)CC1`: the inhibitory constant (Ki) is 200 nM.

On to `COc1cc2ccccc2cc1C(=O)NC1CCN(Cc2ccccc2)C1` (stereo not given), for which affinity was put at a Ki of 3.98 nM.

The target in a further assay is D(2) dopamine receptor (Homo sapiens, UniProt P14416). In words: Binding affinity against cloned human Dopamine receptor D2 (long) using [125I]iodosulpiride as radioligand.
D(2) dopamine receptor, sequence (P14416 whole entry): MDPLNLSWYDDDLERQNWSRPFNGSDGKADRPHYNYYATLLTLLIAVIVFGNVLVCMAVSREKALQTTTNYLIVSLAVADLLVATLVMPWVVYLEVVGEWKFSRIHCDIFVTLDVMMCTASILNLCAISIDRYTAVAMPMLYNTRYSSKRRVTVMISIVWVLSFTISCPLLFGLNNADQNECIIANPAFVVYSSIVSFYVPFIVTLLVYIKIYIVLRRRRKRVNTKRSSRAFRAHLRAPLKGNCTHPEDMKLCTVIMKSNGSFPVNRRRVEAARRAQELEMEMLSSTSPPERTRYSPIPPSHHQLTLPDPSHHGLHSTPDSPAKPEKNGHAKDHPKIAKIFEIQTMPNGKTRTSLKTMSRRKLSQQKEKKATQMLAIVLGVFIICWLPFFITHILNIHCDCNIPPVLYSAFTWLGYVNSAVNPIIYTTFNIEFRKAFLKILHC
Regarding `COc1cc2ccccc2cc1C(=O)OCC1CCN(Cc2ccccc2)C1` (stereo not given), the affinity, expressed as Ki, was 10000 nM.

Turning to `COc1cc2ccccc2cc1C(=O)NCC1CCN(Cc2ccccc2)CC1`, the affinity corresponds to a Ki of 126 nM. Against the preceding compound, the Ki is about 79-fold lower.

Turning to `COc1cc2ccccc2cc1OC(=O)CC1CCN(Cc2ccccc2)CC1`, the Ki was 7940 nM.

In the case of `COc1cc2ccccc2cc1COCC1CCN(Cc2ccccc2)CC1`, affinity was put at a Ki of 1000 nM.

Regarding `COc1cc2ccccc2cc1C(=O)CCC1CCN(Cc2ccccc2)CC1`, the affinity, expressed as Ki, was 398 nM.

Compound `O=C(OCC1CCN(Cc2ccccc2)CC1)c1ccc(Cl)cc1` had a Ki of 2000 nM.

Compound `COc1cc2ccccc2cc1OCCC1CCN(Cc2ccccc2)CC1` gave a Ki of 1580 nM.

Compound `COc1cc2ccccc2cc1C(=O)OCC1CCN(Cc2ccccc2)CC1` gave an inhibitory constant (Ki) of 3160 nM.

For the compound `COc1cc2ccccc2cc1CC(=O)CC1CCN(Cc2ccccc2)CC1`, the Ki was 1260 nM.

On to `COc1cc2ccccc2cc1C(=O)NC1CCN(Cc2ccccc2)C1` (stereo not given), for which the Ki is 39.8 nM.

The target of another assay is Dopamine receptors; D2 & D4 (Homo sapiens) (UniProt P14416+P21917). In words: Selectivity ratio for binding affinity between D4 and D2 receptor. Format: protein assay.
Dopamine receptors; D2 & D4 (Homo sapiens), sequence (P14416 whole entry, looked up, one chain of several): as the sequence (P14416 whole entry) above
Turning to `COc1cc2ccccc2cc1C(=O)OCC1CCN(Cc2ccccc2)C1` (stereo not given), the Selectivity was determined as 500.

Turning to `COc1cc2ccccc2cc1C(=O)NCC1CCN(Cc2ccccc2)CC1`, the Selectivity was determined as 6.

In the case of `COc1cc2ccccc2cc1OC(=O)CC1CCN(Cc2ccccc2)CC1`, the Selectivity amounted to 1260.

Turning to `COc1cc2ccccc2cc1COCC1CCN(Cc2ccccc2)CC1`, the Selectivity stood at 30.

`COc1cc2ccccc2cc1C(=O)CCC1CCN(Cc2ccccc2)CC1`: the Selectivity worked out at 12.

Take `O=C(OCC1CCN(Cc2ccccc2)CC1)c1ccc(Cl)cc1`: the Selectivity turned out to be 80.

Consider `COc1cc2ccccc2cc1OCCC1CCN(Cc2ccccc2)CC1`, for which the Selectivity came to 60.

Take `COc1cc2ccccc2cc1C(=O)OCC1CCN(Cc2ccccc2)CC1`: the Selectivity is 630.

For the compound `COc1cc2ccccc2cc1CC(=O)CC1CCN(Cc2ccccc2)CC1`, the Selectivity was found to be 6.

As to `COc1cc2ccccc2cc1C(=O)NC1CCN(Cc2ccccc2)C1` (stereo not given), the Selectivity was 10.
